The subject of one experiment is A549 (lung) cancer cells. In words: MTT cell viability assay, A549. The class given is cell-based. The settings on record: average ± SD (n = 3). The protocol: (§1) Compounds 4a–n were subjected to the cytotoxicity screening of the cell lines MCF-7 (breast), LoVo (colon), HepG2 (liver) and A549 (lung) carcinoma cells as well as HUVEC normal cell lines. The MTT assay was employed to assess cytotoxicity after 48 h of treatment with different concentrations of each compound and doxorubicin was used as a reference drug. The results were presented in Table 1 as growth inhibitory concentration (IC50 values).
(§2) Cell viability was determined using 3-(4,5-dimethylthiazol-2-yl)-2,5-diphenyl tetrazolium bromide (MTT) assay as stated previously. In brief, A549 (lung), HepG2 (liver), LoVo (colon), MCF-7 (breast) cancer cells as well as normal cells (HUVEC) were seeded in 96-well plates (10^5 per well) and compounds were added in a different final concentration. All cells were treated for 48 h, and then 10μL of MTT reagent (5 mg/mL) was added to each well and further incubated for 4 h. Thereafter, 0.1 mL of acidified isopropanol was added to solubilize formazan product and the developed color was measured at 570 nm in Microplate ELISA Reader (BioTek, Elx-800, Winooski, VT, USA). The IC50 values (concentration required for 50% inhibition of cell viability) were calculated using dose response curve. Cell viability was calculated as = (Ab Treated/Ab Control) × 100.
(§3) The A549, HepG2, LoVo and MCF-7 cancer cell lines were obtained from the German Collection of Microorganisms and Cell Cultures (DSMZ) (Braunschweig, Germany). For Human umbilical vein endothelial cells (HUVEC cells), it was purchased from American Type Culture Collection (16549; Cat no. PCS-100-010; ATTCC, Manassas, VA, USA).
(In general: Tetrazolium assays rely on reduction of a dye to a coloured formazan, in cell work by metabolically active cells.)

Experiment [1] deals with HepG2 (liver) cancer cells. In words: MTT cell viability assay, HepG2. It is filed as cell-based. The settings on record: Homo sapiens, 48 h, average ± SD (n = 3). The procedure:
as §1, §2, §3

In a further experiment the test system is HUVEC normal cells. In words: MTT cell viability assay, normal HUVEC. The class given is cell-based. The conditions noted are these: Homo sapiens, 48 h, average ± SD (n = 3). The protocol:
as §1, §2, §3

The subject of experiment [2] is MCF-7 cells. Kind of experiment: Cell cycle analysis by PI staining and flow cytometry. The class given is cell-based, human. The settings on record: 24 h, mean ± SD, control 57.91 ± 0.61%. The protocol:
Indeed, designing of new chemotherapeutic drugs targeting cell cycle progression and apoptosis is considered as an attractive strategy. To explore the antiproliferative effect of compounds 4d and 4f, cell-cycle analysis was performed in MCF-7 cells were examined. The cells were treated with various concentrations of both compound for 24 h, stained with propidium iodide (PI) and analyzed by flow cytometry. As shown in (Figure 2), the incubation of MCF-7 cells with (1.25, 2.5, and 5 μM) of compound 4d for 24 h increased the percentage of cells at G1 (from 57.91 ± 0.61% in control) to 62.51 ± 0.14%, 64.95 ± 0.21% and 66.55 ± 0.78% in treated cells, respectively.
Cell cycle distribution was evaluated by PI staining as previously described. Briefly, MCF-7 cells were seeded and incubated for a period of 24 h to allow for attachment. Subsequently, cells were exposed to different concentrations of compounds 4d and 4f. After 24 h, cells were harvested and fixed in 70% ethanol. Thereafter, cells were washed with PBS, resuspended in 1 mL of PBS containing PI (50 μg/mL), RNase A (0.5 mg/mL), sodium citrate (0.1%) and Triton X-100 (0.1%), then incubated for 15 min in the dark at room temperature. Flow cytometry was carried out by a FACS Scan Flow Cytometer (Cytomics FC 500; Beckman Coulter, Brea, CA, USA). The data were analyzed using CXP software V. 3.0.

Experiment [3] has as its system MCF-7 cells. Kind of experiment: Annexin V-FITC/PI apoptosis detection. The class given is cell-based, human. The settings on record: 24 h, mean ± SD; for early apoptotic cells: untreated 1.05 ± 0.07%; for late apoptotic cells: control 1.75 ± 0.07%. From the text:
In addition to cell cycle arrest, apoptosis is another important anticancer process that inhibits cancer cell proliferation. Therefore, we further used a double labeling staining with Annexin V-FITC and PI to investigate apoptotic cell death. Phosphatidylserine exposure on the cell surface is a hallmark of early and late apoptotic cells, which can be easily identified with Annexin V-FITC [27].
Apoptotic cells were detected using Annexin V-FITC/PI staining protocol (BioLegend, San Diego, CA, USA) according to the manufacturer’s recommendations. Briefly, MCF-7 cells were incubated for 24 h with the different doses of promising compounds 4d and 4f. The cells were then harvested, washed twice with cold PBS and re-suspended with 1× Annexin V binding buffer (100 µL). Thereafter, cells were transferred into flow cytometry tube and stained with 5 μL of Annexin V- FITC and 5 μL PI for 15 min at room temperature in the dark. The cells were processed for apoptosis using a FACS Scan Flow Cytometer (Cytomics FC 500; Beckman Coulter, Brea, CA, USA) and analyzed using CXP software V. 3.0.

SMILES strings stand for the structures.

The IC50 is the concentration that gives 50% inhibition. Higher therefore signals a need for much substance. Regarding `COc1cccc2c(=O)n(-c3ccc(S(=O)(=O)NCC(=O)Nc4ccc(C)cc4)cc3)c(SCC(=O)Nc3ccc(C)cc3)nc12` [Compound 4d], the IC50 in the experiment with A549 (lung) cancer cells (48 h) was 6.6 ± 0.22 µM; in the experiment with A549 (lung) cancer cells (Homo sapiens, A549, 48 h), 5.6 µM; in experiment [1] it was 9 ± 0.3 µM; in the experiment with HUVEC normal cells, 7.8 ± 0.6 µM. Moreover, the entries for the “percentage of cells at G1” value in the experiment on MCF-7 cells [2] (1.25 μM), in the experiment on MCF-7 cells [2] (2.5 μM) and in the experiment with MCF-7 cells [2] (5 μM) were 62.51 ± 0.14%, 64.95 ± 0.21% and 66.55 ± 0.78%, respectively. Besides, the early apoptotic cells is recorded as 44.45 ± 1.06% with MCF-7 cells [3] (1.25 µM), 67.55 ± 1.34% in the experiment on MCF-7 cells [3] (2.5 µM) and 83.75 ± 2.19% in the experiment with MCF-7 cells [3] (5 µM).

On to `CCc1cccc(NC(=O)CNS(=O)(=O)c2ccc(-n3c(SCC(=O)Nc4cccc(CC)c4)nc4c(OC)cccc4c3=O)cc2)c1` [Compound 4f, N-(3-ethylphenyl)-2-((3-(4-(N-(2-((3-ethylphenyl)amino)-2-oxoethyl)sulfamoyl)-phe-nyl)-8-methoxy-4-oxo-3,4-dihydroquinazolin-2yl)thio)acetamide], for which the IC50 was 10.1 ± 0.24 µM in the experiment with A549 (lung) cancer cells (Homo sapiens, A549, 48 h); 11.7 ± 2 µM in experiment [1]; 17.9 ± 0.6 µM with HUVEC normal cells. Moreover, the “percentage of cells at G1” value in the experiment on MCF-7 cells [2] (1.25 μM) was determined as 61.65 ± 0.21%; in the experiment with MCF-7 cells [2] (2.5 μM), 62.65 ± 0.35%; in the experiment on MCF-7 cells [2] (5 μM), 65.15 ± 0.36%. The late apoptotic cells is listed as 15.4 ± 0.28% in the experiment with MCF-7 cells [3] (1.25 µM), 31.05 ± 1.06% in the experiment with MCF-7 cells [3] (2.5 µM) and 52.4 ± 0.28% in the experiment on MCF-7 cells [3] (10 µM).

The values are drawn from paper PMC8838787, “The Antiproliferative and Apoptotic Effects of a Novel Quinazoline Carrying Substituted-Sulfonamides: In Vitro and Molecular Docking Study” (Molecules, 2022).
